Assay results: patent publication US10906894B2, “Compounds containing benzo[d][1,3]oxathiole, benzo[d][1,3]oxathiole 3-oxide or benzo[d][1,3]oxathiole 3,3-dioxide and methods/uses thereof as agonists of g protein-coupled receptor 119” (PRAMANA PHARMACEUTICALS INC., priority 2016, dated 2021)

Columns and labels:
GPR119 [1] = target: T1, GPR119 (Homo sapiens, UniProt Q8TDV5); assay: LANCE Ultra cAMP assay: stimulation of GPR119-mediated cAMP production in CHO cells stably expressing human GPR119 receptor; type: cell-based; details: for Emax: CHO, read-out: % cAMP Max.
T1 sequence (Q8TDV5 1-335): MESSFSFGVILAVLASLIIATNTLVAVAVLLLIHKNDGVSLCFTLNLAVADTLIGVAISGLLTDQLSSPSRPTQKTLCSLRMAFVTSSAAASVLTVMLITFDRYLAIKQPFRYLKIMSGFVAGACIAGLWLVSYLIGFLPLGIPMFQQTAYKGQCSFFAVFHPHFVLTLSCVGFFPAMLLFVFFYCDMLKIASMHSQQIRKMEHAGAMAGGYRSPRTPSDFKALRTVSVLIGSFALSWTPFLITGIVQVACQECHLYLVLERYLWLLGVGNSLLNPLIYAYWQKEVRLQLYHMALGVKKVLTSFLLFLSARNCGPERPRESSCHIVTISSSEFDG
Description: The potency of GPR119 receptor agonists was assessed by measuring the stimulation of GPR119-mediated cAMP production with LANCE Ultra cAMP assay (Perkin Elmer, TRF0264) in CHO cells stably expressing human GPR119 receptor (Chantest, cat. #A633). CHO-GPR119 cells were cultured in DMEM/F12 medium supplemented with 10% FBS and 1% NEAA at 37° C., 5% CO2, aliquoted and frozen in liquid nitrogen.
(§1) For assay, cells were thawed in a water bath at 37° C., washed in Hank's Balanced Salt Solution (HBSS) and resuspended in Stimulation Buffer 1 (SB1) for 30 min: 5 mM HEPES, pH 7.2-7.4, 0.1% BSA in HBSS. […] The ULight-anti-cAMP antibody (Perkin Elmer, TRF0264) was added to the cell suspension making Mix [Cell suspension/4× ULight-anti-cAMP antibodies]. […] The assay plate was centrifuged 200 g, 5 sec.
Serial dilution (100×) of tested compounds were prepared in DMSO in the range of from 30 nM to 1 mM with half-log step in 384-well plates (Greiner, 781280) using Biomek 2000. 10 test concentrations in two repeats were prepared for each CRC. […] The assay plate was incubated 30 minutes at room temperature on a shaker, 250 rpm to allow GPR119 receptor stimulation. The cAMP level was determined according to the standard kit supplier protocol (PerkinElmer, cat. #TRF0264).
(§2) The stock solution of the Eu-cAMP tracer (Perkin Elmer, TRF0264) was diluted 1:100 in cAMP Detection Buffer (Perkin Elmer, TRF0264), making 2× working concentration and added to the assay plate, 10 μL per well. Assay plate was centrifuged 180 g, 1 sec. Then the assay plate was incubated for 60′ at room temperature on shaker, 250 rpm to allow cAMP detection. The TR-FRET signal was measured at Ex-340 nm/Em-615 and Ex-340 nm/Em-665 nm on the reader Tecan M1000. 0% of cAMP stimulation corresponds to the cells with DMSO only, 100% of cAMP stimulation corresponds to the cells with 10 uM Forskolin. The EC50 value defined as the concentration of the drug that gives half-maximal response, were calculated using GraphPad Prizm 5.0 software with forskolin was used as references at each test. Entries 1-17 in Table A-2 show the biological activity of certain representative compounds using the protocol as described above.
as §1, with “cell suspension,” for “cell suspension”
as §2, with “1-14” for “1-17”, “B-2” for “A-2”

GPR119 [2] = target: T1, GPR119; assay: PathHunter β-arrestin assay (enzyme fragment complementation, β-galactosidase reporter) monitoring activation of GPR119; type: cell-based; set-up: β-galactosidase enzyme fragment for EFC (by own knowledge the ProLink tag, fused to the receptor's C-terminus in PathHunter lines); details: for EC50: Table B-3; for Emax: Table B-3, read-out: % cAMP Max.
Description: Certain test compounds were evaluated using the PathHunterR β-arrestin assay, which monitors the activation of GPR119 in a homogenous, non-imaging assay format using the enzyme fragment complementation (EFC) technology (DiscoverX Corporation, Fremont, Calif. U.S.A.; www.discoverx.com) with β-galactosidase as the functional reporter.

[3] = Table B-2 entries 15-39, modified protocol, 500 cells/well
[4] = reference ligands in modified protocol, 500 cells/well

[O-][S@@+]1COc2cc(-c3ccc(OCC4CCN(c5ncc(Cl)cn5)CC4)c(F)c3)ccc21 [Example B-34, (R)-6-(4-((1-(5-chloropyrimidin-2-yl)piperidin-4-yl)methoxy)-3-fluorophenyl)-2H-benzo[d][1,3]oxathiole-3-oxide]
EC50 (GPR119 [1]; Table B-2 entries 1-14, protocol as described (800 000 cells/mL, 5 uL/well), CHO-GPR119 cells): 0.9 nM | EC50 (GPR119 [2]): 35.7 nM | Emax (GPR119 [2]): 172%

CCc1cnc(N2CCC(COc3ccc(-c4ccc5c(c4)OC[S@@+]5[O-])cc3F)CC2)nc1 [Example B-45, (S)-6-(4-((1-(5-Ethylpyrimidin-2-yl)piperidin-4-yl)methoxy)-3-fluorophenyl)-2H-benzo[d][1,3]oxathiole 3-oxide]
Emax (GPR119 [1]; [3]): 68% | EC50 (GPR119 [1]; [3]): 2.3 nM

CC(C)c1cnc(N2CCC(COc3ccc(-c4ccc5c(c4)OC[S@@+]5[O-])cc3F)CC2)nc1 [Example B-46, (S)-6-(3-fluoro-4-((1-(5-isopropylpyrimidin-2-yl)piperidin-4-yl)methoxy)phenyl)-2H-benzo[d][1,3]oxathiole 3-oxide]
Emax (GPR119 [1]; [3]): 82% | EC50 (GPR119 [1]; [3]): 10.1 nM | EC50 (GPR119 [2]): 7.9 nM | Emax (GPR119 [2]): 164%

COc1cnc(N2CCC(COc3ccc(-c4ccc5c(c4)OC[S@@+]5[O-])cc3F)CC2)nc1 [Example B-50, (S)-6-(3-Fluoro-4-((1-(5-methoxypyrimidin-2-yl)piperidin-4-yl)methoxy)phenyl)-2H-benzo[d][1,3]oxathiole 3-oxide]
Emax (GPR119 [1]; [3]): 66% | EC50 (GPR119 [1]; [3]): 3.7 nM | EC50 (GPR119 [2]): 16.4 nM | Emax (GPR119 [2]): 169%

COc1cnc(N2CCC(COc3ccc(-c4ccc5c(c4)OC[S@+]5[O-])cc3F)CC2)nc1 [Example B-51, (R)-6-(3-Fluoro-4-((1-(5-methoxypyrimidin-2-yl)piperidin-4-yl)methoxy)phenyl)-2H-benzo[d][1,3]oxathiole 3-oxide]
Emax (GPR119 [1]; [3]): 70% | EC50 (GPR119 [1]; [3]): 40.6 nM

CCc1cnc(N2CCC(COc3ccc(-c4ccc5c(c4)OC[S@+]5[O-])cc3F)CC2)nc1 [Example B-52]
Emax (GPR119 [1]; [3]): 73% | EC50 (GPR119 [1]; [3]): 19.5 nM

CC(C)c1cnc(N2CCC(COc3ccc(-c4ccc5c(c4)OC[S@+]5[O-])cc3F)CC2)nc1 [Example B-53, (R)-6-(3-fluoro-4-((1-(5-isopropylpyrimidin-2-yl)piperidin-4-yl)methoxy)phenyl)-2H-benzo[d][1,3]oxathiole 3-oxide]
Emax (GPR119 [1]; [3]): 74% | EC50 (GPR119 [1]; [3]): 41 nM

[O-][S@+]1COc2cc(-c3ccc(OCC4CCN(c5ncc(Cl)cn5)CC4)c(F)c3)ccc21 [Example B-59, (S)-6-(4-((1-(5-Chloropyrimidin-2-yl)piperidin-4-yl)methoxy)-3-fluorophenyl)-2H-benzo[d][1,3]oxathiole 3-oxide]
Emax (GPR119 [1]; [3]): 70% | EC50 (GPR119 [1]; [3]): 1.7 nM | EC50 (GPR119 [2]): 6.7 nM | Emax (GPR119 [2]): 175%

[O-][S@+]1COc2cc(-c3cnc(OCC4CCN(c5ncc(Cl)cn5)CC4)nc3)ccc21 [Example B-62, (S)-6-(2-((1-(5-Chloropyrimidin-2-yl)piperidin-4-yl)methoxy)pyrimidin-5-yl)-2H-benzo[d][1,3]oxathiole 3-oxide]
Emax (GPR119 [1]; [3]): 66% | EC50 (GPR119 [1]; [3]): 43.5 nM

CCc1cnc(N2CC[C@@H](COc3ccc(-c4ccc5c(c4)OC[S+]5[O-])cc3F)C2)nc1 (stereo partly drawn) [Example B-67, 6-(4-(((R)-1-(5-Ethylpyrimidin-2-yl)pyrrolidin-3-yl)methoxy)-3-fluorophenyl)-2H-benzo[d][1,3]oxathiole 3-oxide]
Emax (GPR119 [1]; [3]): 74% | EC50 (GPR119 [1]; [3]): 54 nM

CCc1cnc(N2CC[C@@H](COc3ccc(-c4ccc5c(c4)OCS5)cc3F)C2)nc1 [Example B-69]
EC50 (GPR119 [1]; [3]): > 10000 nM

CCc1cnc(N2CC[C@H](COc3ccc(-c4ccc5c(c4)OC[S@@+]5[O-])cc3F)C2)nc1 [Example B-75, (S)-6-(4-(((S)-1-(5-Ethylpyrimidin-2-yl)pyrrolidin-3-yl)methoxy)-3-fluorophenyl)-2H-benzo[d][1,3]oxathiole 3-oxide]
Emax (GPR119 [1]; [3]): 88% | EC50 (GPR119 [1]; [3]): 17.7 nM | EC50 (GPR119 [2]): 60 nM | Emax (GPR119 [2]): 190%

CCc1cnc(N2CC[C@H](COc3ccc(-c4ccc5c(c4)OC[S@+]5[O-])cc3F)C2)nc1 [Example B-76]
Emax (GPR119 [1]; [3]): 80% | EC50 (GPR119 [1]; [3]): 20.5 nM

CCc1cnc(N2CC[C@@H](COc3ccc(-c4ccc5c(c4)OC[S@@+]5[O-])cc3F)C2)nc1 [Example B-77]
Emax (GPR119 [1]; [3]): 81% | EC50 (GPR119 [1]; [3]): 32.5 nM

CCc1cnc(N2CC[C@@H](COc3ccc(-c4ccc5c(c4)OC[S@+]5[O-])cc3F)C2)nc1 [Example B-78]
Emax (GPR119 [1]; [3]): 72% | EC50 (GPR119 [1]; [3]): 115 nM

[O-][S@+]1COc2cc(-c3ccc(OC[C@H]4CCN(c5ncc(Cl)cn5)C4)c(F)c3)ccc21 [Example B-81, (S)-6-(4-(((S)-1-(5-Chloropyrimidin-2-yl)pyrrolidin-3-yl)methoxy)-3-fluorophenyl)-2H-benzo[d][1,3]oxathiole 3-oxide]
Emax (GPR119 [1]; [3]): 95% | EC50 (GPR119 [1]; [3]): 30 nM

CCc1ccnc(N2CC[C@H](COc3ccc(-c4ccc5c(c4)OC[S@@+]5[O-])cc3F)C2)n1 [Example B-84, (S)-6-(4-(((S)-1-(4-Ethylpyrimidin-2-yl)pyrrolidine-3-yl)methoxy)-3-fluorophenyl)-2H-benzo[d][1,3]oxathiole 3-oxide]
Emax (GPR119 [1]; [3]): 92% | EC50 (GPR119 [1]; [3]): 31.5 nM | EC50 (GPR119 [2]): 567 nM | Emax (GPR119 [2]): 117%

CCc1ccnc(N2CC[C@H](COc3ccc(-c4ccc5c(c4)OC[S@+]5[O-])cc3F)C2)n1 [Example B-85, (R)-6-(4-(((S)-1-(4-Ethylpyrimidin-2-yl)pyrrolidine-3-yl)methoxy)-3-fluorophenyl)-2H-benzo[d][1,3]oxathiole 3-oxide]
Emax (GPR119 [1]; [3]): 64% | EC50 (GPR119 [1]; [3]): 13 nM | EC50 (GPR119 [2]): 657 nM | Emax (GPR119 [2]): 73%

[O-][S@@+]1COc2cc(-c3ccc(OC[C@H]4CCN(c5ncc(Cl)cn5)C4)c(F)c3)ccc21 [Example B-86, (R)-6-(4-(((S)-1-(5-Chloropyrimidin-2-yl)pyrrolidine-3-yl)methoxy)-3-fluorophenyl)-2H-benzo[d][1,3]oxathiole 3-oxide]
Emax (GPR119 [1]; [3]): 93% | EC50 (GPR119 [1]; [3]): 4.6 nM | EC50 (GPR119 [2]): 108 nM | Emax (GPR119 [2]): 133%

C=C[C@@]1(C)CC(=O)[C@]2(O)[C@@]3(C)[C@@H](O)CCC(C)(C)[C@@H]3[C@H](O)[C@H](OC(C)=O)[C@@]2(C)O1 [Forscolin, Forskolin, reference compound]
EC50 (GPR119 [1]; [4]): 28.5 nM | maximum cAMP stimulation (GPR119 [1]; [4]): 124%

CCCCCCCC/C=C\CCCCCCCC(=O)NCCO [oleoyl ethanolamide, reference compound]
EC50 (GPR119 [1]; [4]): 592 nM | maximum cAMP stimulation (GPR119 [1]; [4]): 100%
